In the oligonucleotide strings, read from the 5' end, every base follows the letter of its sugar. An asterisk marks phosphorothioate; unmarked linkages are phosphodiester. Other units and linkages are bracketed, terminal groups are in braces. A string of capitals states the bases alone. e = 2'-O-(2-methoxyethyl) (MOE); [5mC] = 5-methylcytosine; d = 2'-deoxy (DNA)
Columns and labels:
T47D cells = assay: Caspase-3 activity assay (apoptosis) in T47D cells; conditions: T47D cells, 200 nM, 48 hours, relative to untreated control
[1] = test system: BJ, B16-F10, T47D, T47Dp53 and HeLa cells; assay: Cell cycle assay (propidium iodide flow cytometry), cell line panel; type: cell-based; conditions: 150 nM, 72 hours (Table 29)
[2] = test system: 3′-UTR of the LIM domain only 4 (LMO4) gene; assay: pGL3-LMO4 luciferase assay in HeLa cells; type: cell-based, human; conditions: 48 hours
Excerpt: (§1) In one embodiment, an expression system based on the pGL3-Control (Promega Corp., Madison Wis.) vector containing a CMV promoter controlling expression of a luciferase reporter sequence was used in transient transfections of HeLa cells with plasmids expressing miRNA or pri-miRNA mimics. To assess the ability of miRNA mimics to bind and regulate the expression of the luciferase reporter gene, two reporter plasmids were constructed: 1) a synthetic DNA fragment comprising two sites perfectly complementary to mir-143 were inserted into the pGL3-Control luciferase reporter vector, to create the pGL3-mir-143 sensor plasmid, and 2) a DNA fragment comprising the 3′-UTR of the LIM domain only 4 (LMO4) gene (predicted to be regulated by mir-143) was inserted into pGL3-Control to create pGL3-LMO4; this fragment was PCR-amplified using a primer beginning at position 1261 of the LMO4 sequence (GenBank Accession NM_006769.2, incorporated herein as SEQ ID: 809) and the downstream primer hybridizing to the poly-A tail. In each of these plasmids, the target site was placed downstream of the luciferase coding sequence and upstream of the polyadenylation signal in the 3′-UTR of the luciferase reporter vector. The unmodified pGL3-Control luciferase reporter vector was used as a control.
HeLa cells were routinely cultured and passaged as described, and on the day before transfection with expression or reporter plasmids, the HeLa cells were seeded onto 24-well plates 50,000 cells/well. Cells were transfected according to standard published procedures with various combinations of plasmids using 2 μg Lipofectamine™ 2000 Reagent (Invitrogen) per μg of plasmid DNA, or, when transfecting oligomeric compounds, 1.25 μg of Lipofectamine™ 2000 Reagent per 100 nM oligonucleotide or double-stranded RNA. The luciferase signal in each well was normalized to the Renilla luciferase (RL) activity produced from a co-transfected plasmid, pRL-CMV, which was transfected at 0.5 μg per well. […]

[3] = test system: pGL3-Control luciferase reporter; assay: pGL3-Control luciferase assay in HeLa cells (reporter without miRNA binding site); type: cell-based, human; conditions: for luciferase expression: 24 hours; for luciferase expression (% lucif. only control): pGL3-Control, 48 hours
Excerpt: as §1
HeLa cells were routinely cultured and passaged as described, and on the day before transfection with expression or reporter plasmids, the HeLa cells were seeded onto 24-well plates 50,000 cells/well. Cells were transfected according to standard published procedures with various combinations of plasmids using 2 μg Lipofectamine™ 2000 Reagent (Invitrogen) per μg of plasmid DNA, or, when transfecting oligomeric compounds, 1.25 μg of Lipofectamine™ 2000 Reagent per 100 nM oligonucleotide or double-stranded RNA. The luciferase signal in each well was normalized to the Renilla luciferase (RL) activity produced from a co-transfected plasmid, pRL-CMV, which was transfected at 0.5 μg per well. Cells were treated at various dosages (4 nM, 20 nM, and 100 nM) with the following oligomeric compound mimics: 1) “ds-mir-143,” 2) “ds-Control,” 3) “pCR3-pri-mir-143,” or 4) “pri-mir-control,” as described supra. In accordance with methods described in Example 12, supra, a luciferase assay was performed 48-hours after transfection. Briefly, cells were lysed in passive lysis buffer (PLB; Promega), and 20 ul of the lysate was then assayed for RL activity using a Dual Luciferase Assay kit (Promega) according to the manufacturer's protocol. The results below are an average of three trials and are presented as percent pGL3-Control luciferase expression normalized to pRL-CMV expression (RL).
An expression system based on the pGL3-Control (Promega Corp., Madison Wis.) reporter vector and comprising predicted miRNA binding sites was used in transient transfections of HeLa cells with plasmids expressing oligomeric compounds mimicking miRNAs, pre-miRNAs or pri-miRNAs in order to assess the ability of these miRNA mimics to bind and regulate the expression of the luciferase reporter. The effect of increasing the copy number of the miRNA-binding site in the target was also tested by including multiple binding sites in artificial reporter constructs. It is understood that the presence of multiple miRNA-binding sites in a target can include binding sites for different miRNAs.
HeLa cells were routinely cultured and passaged as described. In some embodiments, HeLa cells were transfected with 0.05 μg of the relevant pGL3-sensor plasmid and 0.01 μg pRL-CMV plasmid. Additionally, in some embodiments, cells were treated at various dosages (11 nM, 33 nM, and 100 nM) with the following oligomeric compound mimics: 1) ds-mir-143, or 2) ds-Control as described. In accordance with methods described in Example 12, a luciferase assay was performed 24-hours after transfection. The results, shown in Tables 40 and 41, are an average of three trials. […]

For “328403 (antisense eA*eG*eG*e[5mC]*e[5mC]*dT*dA*dT*dT*d[5mC]*d[5mC]*dT*dG*dT*dA*eG*e[5mC]*eA*eA*eA) [compound 328403]”, the “Fold Increase over UTC (caspase activity)” value (T47D cells) was 1.0.
With “CTAGTGGTCCTAAACATTTCAC (chemistry not given here) [ISIS 327878, uniform 2′-MOE PS; targets mir-203]” the “percentage of cells in the G2/M phase” value [1] was “increased percentage of cells in the G2/M phase” and the “percentage of cells with hypodiploid DNA content (subG1)” value [1] was “increased percentage of cells with hypodiploid DNA content”.
For “ds-mir-143: double-stranded RNA of ISIS 342199 hybridized to its perfect complement ISIS 342200 (sense UGAGAUGAAGCACUGUAGCUCA; antisense UGAGCUACAGUGCUUCAUCUCA; RNA, backbone not given here)”, the “luciferase expression (% lucif. only control)” value ([2]; 4 nM) was 151.6 % lucif. only control, the “luciferase expression (% lucif. only control)” value ([2]; 20 nM) was 140.1 % lucif. only control and the “luciferase expression (% lucif. only control)” value ([2]; 100 nM) was 128.4 % lucif. only control. The luciferase expression ([3]; Table 40, pGL3-Control, 11 nM) was 90.7 percent untreated control, the luciferase expression ([3]; Table 40, pGL3-Control, 33 nM) was 94.2 percent untreated control and the luciferase expression ([3]; Table 40, pGL3-Control, 100 nM) was 72.5 percent untreated control. The luciferase expression ([3]; Table 41, pGL3-Control, 11 nM) was 110.2 percent untreated control, the luciferase expression ([3]; Table 41, pGL3-Control, 33 nM) was 124.3 percent untreated control and the luciferase expression ([3]; Table 41, pGL3-Control, 100 nM) was 92.3 percent untreated control. For the same substance, the “luciferase expression (% lucif. only control)” value ([3]; 4 nM) was 101.5 % lucif. only control, the “luciferase expression (% lucif. only control)” value ([3]; 20 nM) was 123.8 % lucif. only control and the “luciferase expression (% lucif. only control)” value ([3]; 100 nM) was 131.8 % lucif. only control.
